The source of these data is patent publication US10851073B2, “Protein tyrosine phosphatase inhibitors and methods of use thereof” (Calico Life Sciences LLC, priority 2019, dated 2020).

The test system of test [1] is Pan T cells isolated from C57BL6 splenocytes. Put plainly: T cell function assays (IFNγ and TNFα in supernatants). The class given is cell-based, mouse. The conditions noted are these: 0.3 μM compound, 3 days; for IFNγ [pg/mL] anti-CD3/CD28 / TNFα [pg/mL] anti-CD3/CD28: anti-CD3/CD28 stimulation. The method, then: Example 231: T Cell Function Assays Pan T cells were isolated from C57BL6 splenocytes using a MACS Pan T cell isolation kit II (Miltenyi Biotec, Auburn, Calif.) according to the manufacturer's instructions. Isolated T cells (200,000 cells/well in a 96 well flat-bottom plate) were cultured in RPMI 1640 supplemented with 10% FBS, […] 2-mercaptoethanol, 100 U/mL penicillin, and 100 μg/mL streptomycin, and incubated with 0.3 μM compound or DMSO in duplicates. After 1 hour, mouse T cell activator CD3/CD28 Dynabeads (ThermoFisher Scientific, Waltham, Mass.) were added at a 1:5 beads to cells ratio to stimulate the T cells for 3 days. T cells with or without compound were incubated in the absence of T cell activator beads to evaluate if compounds nonspecifically stimulate the T cells. After 3 days of stimulation, supernatants were collected and IFNγ and TNFα in supernatants were assessed using an MSD V-plex assay (Meso Scale Discovery, Rockville, Md.).

Test [2] has as its target T1, His tagged PTPN2 (TC45) protein (Homo sapiens, UniProt P17706).
T1 construct: made in house
T1 sequence (P17706 with tags, fused parts or gaps isoform P17706-2): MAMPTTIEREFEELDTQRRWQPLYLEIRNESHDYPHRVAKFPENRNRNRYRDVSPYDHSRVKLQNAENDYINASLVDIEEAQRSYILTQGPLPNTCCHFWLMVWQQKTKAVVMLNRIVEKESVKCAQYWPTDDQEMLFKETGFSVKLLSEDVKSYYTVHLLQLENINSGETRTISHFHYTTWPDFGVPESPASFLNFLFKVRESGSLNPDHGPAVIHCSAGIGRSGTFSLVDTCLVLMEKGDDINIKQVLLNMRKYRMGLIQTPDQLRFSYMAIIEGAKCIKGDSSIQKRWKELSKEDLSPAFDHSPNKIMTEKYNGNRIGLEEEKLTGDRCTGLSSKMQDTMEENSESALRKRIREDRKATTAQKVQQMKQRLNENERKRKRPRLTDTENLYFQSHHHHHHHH
Put plainly: Mobility shift assay used to determine potency of PTPN2 inhibitors. In kind it is biochemical. Particulars: enzyme 0.5 nM, substrate 2 μM; read-out: PTPN2 MSA IC50. The method in brief:
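Microfluidic mobility-shift read-out (488/530 nm) of dephosphorylation of an OG488-tagged phosphotyrosine insulin receptor peptide, 2 μM, over 10 min at room temperature, after 10 min compound preincubation with 0.5 nM enzyme. Buffer: 50 mM HEPES pH 7.5, EGTA, EDTA, Tween 20, DTT. IC50 derived from % inhibition over 12-point 1:3 series.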

The target in test [3] is T2, His tagged full-length PTPN1 protein (Homo sapiens, UniProt P18031).
T2 construct: made in house
T2 sequence (P18031 with tags, fused parts or gaps): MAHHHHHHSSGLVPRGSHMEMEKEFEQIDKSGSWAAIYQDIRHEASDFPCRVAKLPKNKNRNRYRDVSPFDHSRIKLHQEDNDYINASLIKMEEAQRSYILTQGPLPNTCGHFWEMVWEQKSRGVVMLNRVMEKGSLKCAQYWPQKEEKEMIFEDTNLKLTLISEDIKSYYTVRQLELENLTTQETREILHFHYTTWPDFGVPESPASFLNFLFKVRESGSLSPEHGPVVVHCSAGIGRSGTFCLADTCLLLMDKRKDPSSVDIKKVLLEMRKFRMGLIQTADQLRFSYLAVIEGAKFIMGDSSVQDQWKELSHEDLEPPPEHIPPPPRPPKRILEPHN
Put plainly: Mobility shift assay (MSA) used to determine potency of PTPN1 inhibitors. The class given is biochemical. The conditions noted are these: enzyme 0.5 nM, substrate 2 μM. The method in brief: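 Full-length His-tagged human PTPN1 (0.5 nM) was preincubated 10 min at room temperature with compound (12-point, 1:3 dilution) in HEPES pH 7.5 buffer with EGTA, EDTA, Tween 20 and DTT. A 2 μM fluorescent phospho-insulin receptor peptide was then added for 10 min before quench. Mobility-shift % conversion gave % inhibition and IC50.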

The test system of test [4] is B16F10 mouse melanoma cells. Put plainly: B16F10 IFNγ-induced cellular growth inhibition assay. The conditions noted are these: B16-F10, with 0.5 ng/mL IFNγ, read-out: B16F10 GI IC50. The class given is cell-based. The method in brief:
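B16F10 cells grown in DMEM+10% FBS, with or without 0.5 ng/mL final mouse IFNγ, and dosed in triplicate at 100 μM to 0.001 μM final (0.1% DMSO). Confluence imaged every 6 h for 5 days; percent growth inhibition versus DMSO/with-IFNγ control taken once DMSO/no-IFNγ wells exceeded 95% confluence, giving IC50.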

By IC50 is commonly meant the concentration at which inhibition is half-maximal.

In the case of `CCC(CC)CCN[C@@H]1CCc2cc(O)c(N3CC(=O)NS3(=O)=O)c(F)c2C1` [Compound 204, 5-{(7R)-7-[(3-ethylpentyl)amino]-1-fluoro-3-hydroxy-5,6,7,8-tetrahydronaphthalen-2-yl}-1λ^6,2,5-thiadiazolidine-1,1,3-trione], in test [1], the “IFNγ [pg/mL] anti-CD3/CD28” value was 148.8 pg/mL, the “TNFα [pg/mL] anti-CD3/CD28” value is recorded as 105.4 pg/mL, the “IFNγ [pg/mL] no stimulation” value was found to be 1.8 pg/mL and the “TNFα [pg/mL] no stimulation” value was 1.1 pg/mL.

In the case of `O=C1CN(c2c(O)cc3c(c2F)C[C@H](NCCC2(C(F)(F)F)CC2)CC3)S(=O)(=O)N1` (single isomer, unassigned) [Compound 148], the IC50 in test [2] was less than 1 nM. For the same compound, the IC50 in test [3] is less than 1 nM. Besides, in test [4], the IC50 was less than 1000 nM. In test [1], the “IFNγ [pg/mL] anti-CD3/CD28” value is 168.4 pg/mL, the “TNFα [pg/mL] anti-CD3/CD28” value is recorded as 123.4 pg/mL, the “IFNγ [pg/mL] no stimulation” value is 1.0 pg/mL and the “TNFα [pg/mL] no stimulation” value was 0.8 pg/mL.

`CC(C)CCNC[C@@H]1Cc2cc(O)c(N3CC(=O)NS3(=O)=O)c(F)c2C1` (single isomer, unassigned) [Compound 291]: in test [2], the IC50 lay within 1 to 10 nM. For the same compound, the 50% inhibitory concentration (IC50) in test [3] was in the range of 1 to 10 nM. In test [4], the concentration for half-maximal inhibition (IC50) was less than 1000 nM. Also, in test [1], the “IFNγ [pg/mL] anti-CD3/CD28” value turned out to be 83.3 pg/mL, the “TNFα [pg/mL] anti-CD3/CD28” value amounted to 91.2 pg/mL, the “IFNγ [pg/mL] no stimulation” value was 0.7 pg/mL and the “TNFα [pg/mL] no stimulation” value is given as 1.1 pg/mL.

Turning to `CC(C)CCCC1(N)CCc2cc(O)c(N3CC(=O)NS3(=O)=O)c(F)c2C1` (centres unmarked) [Compound 254, 5-[7-amino-1-fluoro-3-hydroxy-7-(4-methylpentyl)-5,6,7,8-tetrahydronaphthalen-2-yl]-1λ^6,2,5-thiadiazolidine-1,1,3-trione], the IC50 in test [2] was 10 to 100 nM. Also, in test [3], the IC50 is 10 to 100 nM. The IC50 in test [4] was in the range of 1000 to 10000 nM. Also, in test [1], the “IFNγ [pg/mL] anti-CD3/CD28” value is recorded as 97.0 pg/mL, the “TNFα [pg/mL] anti-CD3/CD28” value turned out to be 91.2 pg/mL, the “IFNγ [pg/mL] no stimulation” value was found to be 0.7 pg/mL and the “TNFα [pg/mL] no stimulation” value is listed as 1.1 pg/mL.

`C[C@@H](O)CCN[C@@H]1CCc2cc(O)c(N3CC(=O)NS3(=O)=O)c(F)c2C1` (single isomer, unassigned) [Compound 307]: the IC50 in test [2] lay within 1 to 10 nM. For the same compound, the IC50 in test [3] was 1 to 10 nM. Further, in test [4], the IC50 is less than 1000 nM. Besides, in test [1], the “IFNγ [pg/mL] anti-CD3/CD28” value was 66.7 pg/mL, the “TNFα [pg/mL] anti-CD3/CD28” value turned out to be 89.5 pg/mL, the “IFNγ [pg/mL] no stimulation” value came to 1.2 pg/mL and the “TNFα [pg/mL] no stimulation” value came out at 1.1 pg/mL.

In the case of `CC(C)(CO)CCN[C@@H]1CCc2cc(O)c(N3CC(=O)NS3(=O)=O)c(F)c2C1` (single isomer, unassigned) [Compound 308], the figures for the IC50 in test [2], in test [3] and in test [4] were 1 to 10 nM, 1 to 10 nM and less than 1000 nM, respectively.

Turning to `O=C1CN(c2c(O)cc3c(c2F)CC(NCCC(F)F)CC3)S(=O)(=O)N1` (centres unmarked) [Compound 223, 5-{7-[(3,3-difluoropropyl)amino]-1-fluoro-3-hydroxy-5,6,7,8-tetrahydronaphthalen-2-yl}-1λ^6,2,5-thiadiazolidine-1,1,3-trione], the IC50 is 10 to 100 nM in test [2], 1 to 10 nM in test [3] and less than 1000 nM in test [4].

On to `CC(C)C(O)CNC1CCc2cc(O)c(N3CC(=O)NS3(=O)=O)c(F)c2C1` (centres unmarked) [Compound 187, 5-{1-fluoro-3-hydroxy-7-[(2-hydroxy-3-methylbutyl)amino]-5,6,7,8-tetrahydronaphthalen-2-yl}-1λ^6,2,5-thiadiazolidine-1,1,3-trione], for which the IC50 in test [2] is 1 to 10 nM; in test [3] it was 1 to 10 nM; in test [4] it was less than 1000 nM.

Take `O=C1CN(c2c(O)cc3c(c2F)CC(NCC(F)(F)c2ccccc2)CC3)S(=O)(=O)N1` (centres unmarked) [Compound 125, 5-{7-[(2,2-difluoro-2-phenylethyl)amino]-1-fluoro-3-hydroxy-5,6,7,8-tetrahydronaphthalen-2-yl}-1λ^6,2,5-thiadiazolidine-1,1,3-trione]: the IC50 in test [2] fell in the range of 1 to 10 nM; in test [3], 10 to 100 nM; in test [4], 10000 to 100000 nM.

`CC(C)(CCNC1CCc2cc(O)c(N3CC(=O)NS3(=O)=O)c(F)c2C1)C(F)(F)F` (centres unmarked) [Compound 123, 5-{1-fluoro-3-hydroxy-7-[(4,4,4-trifluoro-3,3-dimethylbutyl)amino]-5,6,7,8-tetrahydronaphthalen-2-yl}-1λ^6,2,5-thiadiazolidine-1,1,3-trione]: the IC50 in test [2] was 1 to 10 nM; in test [3] it was 1 to 10 nM; in test [4], 1000 to 10000 nM.

Turning to `CC(C)CCNC1CCc2cc(O)c(N3CC(=O)NS3(=O)=O)c(F)c2C1` (centres unmarked) [Compound 102, 5-{1-fluoro-3-hydroxy-7-[(3-methylbutyl)amino]-5,6,7,8-tetrahydronaphthalen-2-yl}-1λ^6,2,5-thiadiazolidine-1,1,3-trione], the values for the IC50 in test [2], in test [3] and in test [4] were less than 1 nM, 1 to 10 nM and less than 1000 nM, respectively.

Turning to `O=C1CN(c2c(O)cc3c(c2F)C[C@@H]([C@@H]2CCN(S(=O)(=O)C4CC4)C2)CC3)S(=O)(=O)N1` (single isomer, unassigned) [Compound 137, 5-{(7RS)-7-[(3RS)-1-(cyclopropanesulfonyl)pyrrolidin-3-yl]-1-fluoro-3-hydroxy-5,6,7,8-tetrahydronaphthalen-2-yl}-1λ^6,2,5-thiadiazolidine-1,1,3-trione], the IC50 in test [2] was less than 1 nM; in test [3], 1 to 10 nM; in test [4] it was 10000 to 100000 nM.
